Earlier results, collected in patent US20130344087A1, “COMBINATIONS OF ANTI-S1P ANTIBODIES AND SHPINGOLIPID PATHWAY INHIBITORS” (priority 2010, published 2013).

Key:
ceramide synthase 2 = molecular target: T1, ceramide synthase 2 (Homo sapiens, UniProt Q96G23); details: human pulmonary artery endothelial cells
T1 construct: endogenous in cells; host or cells: human pulmonary artery endothelial cells
T1 sequence (Q96G23 1-380): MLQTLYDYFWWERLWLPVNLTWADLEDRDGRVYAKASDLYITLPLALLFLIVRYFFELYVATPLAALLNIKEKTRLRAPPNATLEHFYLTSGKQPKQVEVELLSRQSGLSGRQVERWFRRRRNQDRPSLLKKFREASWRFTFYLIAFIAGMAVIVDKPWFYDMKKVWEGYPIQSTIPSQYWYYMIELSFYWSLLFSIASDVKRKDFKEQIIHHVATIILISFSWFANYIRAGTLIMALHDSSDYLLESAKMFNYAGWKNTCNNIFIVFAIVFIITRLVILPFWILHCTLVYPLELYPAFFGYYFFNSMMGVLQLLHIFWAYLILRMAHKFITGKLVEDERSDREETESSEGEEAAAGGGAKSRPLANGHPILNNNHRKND

[1] = test system: human leukemia Jurkat cells
SPHK 2 = molecular target: T2, SPHK 2 (Homo sapiens, UniProt Q9NRA0)
T2 sequence (Q9NRA0 1-654): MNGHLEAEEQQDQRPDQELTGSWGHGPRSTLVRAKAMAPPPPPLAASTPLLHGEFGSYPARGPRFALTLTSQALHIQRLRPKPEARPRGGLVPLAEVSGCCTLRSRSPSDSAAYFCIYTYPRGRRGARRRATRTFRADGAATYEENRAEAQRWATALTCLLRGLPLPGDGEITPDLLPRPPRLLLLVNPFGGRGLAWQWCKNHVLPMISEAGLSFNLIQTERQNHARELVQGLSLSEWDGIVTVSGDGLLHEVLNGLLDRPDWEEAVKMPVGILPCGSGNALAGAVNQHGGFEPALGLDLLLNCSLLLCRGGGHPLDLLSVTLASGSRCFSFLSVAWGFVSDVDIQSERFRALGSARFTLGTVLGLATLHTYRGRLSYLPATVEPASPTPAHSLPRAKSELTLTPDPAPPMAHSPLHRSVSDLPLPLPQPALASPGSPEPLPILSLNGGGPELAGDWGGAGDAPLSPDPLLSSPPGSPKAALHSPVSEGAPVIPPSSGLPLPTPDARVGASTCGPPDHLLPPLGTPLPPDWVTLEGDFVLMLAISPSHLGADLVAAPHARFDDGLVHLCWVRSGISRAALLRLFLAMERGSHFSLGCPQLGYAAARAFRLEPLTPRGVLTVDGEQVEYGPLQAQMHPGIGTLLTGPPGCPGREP

AML xenograft tumors = details: in vivo
[2] = test system: normal peripheral blood mononuclear leukocytes
[3] = test system: human leukemia U937 cells
[4] = test system: leukemic blasts isolated from patients with acute myelogenous leukemia; details: blasts from AML patients
PKCα = PKCα (Homo sapiens, UniProt P17252); details: at concentrations up to 60 μM
ERK2 = ERK2 (Homo sapiens, UniProt P28482); details: at concentrations up to 60 μM
Sequence of ERK2 (P28482 whole entry, species assumed): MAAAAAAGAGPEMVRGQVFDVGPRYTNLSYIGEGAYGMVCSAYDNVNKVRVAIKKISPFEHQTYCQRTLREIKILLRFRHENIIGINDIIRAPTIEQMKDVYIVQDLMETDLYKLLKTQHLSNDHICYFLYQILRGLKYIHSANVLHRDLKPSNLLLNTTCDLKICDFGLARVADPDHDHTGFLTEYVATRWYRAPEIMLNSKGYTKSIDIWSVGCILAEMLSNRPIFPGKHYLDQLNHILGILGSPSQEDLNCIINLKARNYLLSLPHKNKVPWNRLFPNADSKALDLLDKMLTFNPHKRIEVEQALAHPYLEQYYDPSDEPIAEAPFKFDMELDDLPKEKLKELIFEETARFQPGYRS

PI3-kinase = details: at concentrations up to 60 μM
[5] = test system: human cancer cell lines (T-24, MCF-7, NCl/ADR, and MCF-7NP); details: range across cell lines, read-out: IC50, inhibition of proliferation

## CCCCCCCCc1ccc(CCC(N)(CO)CO)cc1.Cl [FTY720, 2-amino-2[2-(4-octylphenyl)ethyl]propane-1,3-diol hydrochloride]
Ceramide synthase 2
  cellular levels of dihydroceramides, ceramides, sphingosine, and S1P: decreased cellular levels
  inhibition of ceramide synthase 2: inhibit ceramide synthase 2
Ceramide synthase 2; mediated by SPHK1 activity
  levels of dihydrosphingosine and dihydrosphingosine 1-phosphate (DHS1P): increased levels

## CCCCCc1ccc(/C=C/[C@H](O)[C@@H](CO)NC)cc1 [SK1-I, (2R,3S,4E)-N-methyl-5-(4′-pentylphenyl)-2-aminopent-4-ene-1,3-diol]
[1]
  growth and survival of Jurkat cells: decrease growth and survival
SPHK 2
  inhibition of SPHK 2: does not inhibit
AML xenograft tumors
  growth of AML xenograft tumors: markedly reduces growth
S1P and ceramide levels
  S1P levels: decreases S1P levels
  levels of proapoptotic precursor ceramide: increases levels
PKC
  inhibition of PKC: does not inhibit
[2]
  effect on normal peripheral blood mononuclear leukocytes: sparing
[3]
  growth and survival of U937 cells: decrease growth and survival
[4]
  induction of apoptosis in leukemic blasts: potently induces apoptosis

## Oc1ccc(Nc2nc(-c3ccc(Cl)cc3)cs2)cc1 [SPHK I2, 4-[[4-(4-chlorophenyl)-2-thiazolyl]amino]-phenol]
PKCα
  inhibition of PKCα: no inhibition
ERK2
  inhibition of ERK2: no inhibition
PI3-kinase
  inhibition of PI3-kinase: no inhibition
[5]
  IC50: 900 to 4600 nM

## CCCCCCCCCCCCCCC[C@H](O)[C@@H](N)CO [safingol, L-threo-dihydrosphingosine]
Leukemia cells
  cytotoxicity to leukemia cells: cytotoxic
